{"source": "patent US20170016884A1", "about": "“A NOVEL, HIGH-THROUGHPUT, NANOTOPOGRAPHIC PLATFORM FOR SCREENING CELL MIGRATORY BEHAVIOR” (THE JOHNS HOPKINS UNIVERSITY, priority 2014, published 2017)", "key": {"primary human GB cells [1]": {"test_system": "primary human GB cells", "experiment": "cell migration on flat (smooth) substrata", "assay_type": "cell-based", "method": "Cells were cultured in the multi-well, nanopatterned device for approximately 48 hours in the course of each experiment. […] These topographically patterned cell substrata, caused cells to align with and move along the direction of the nanoridges. Both prior to, and during experiments cells were maintained at 37° C. and 5% CO2 in Dulbecco's Modified Eagle Medium: Nutrient Mixture F-12 containing 2 mM L-glutamine, with added 50 U mL-1 penicillin, […] streptomycin. Where indicated, media contained 10% fetal bovine serum (Invitrogen) or alternatively, Platelet-Derive Growth Factor-AA (PDGF-AA) (LC Laboratories) at specified concentrations.\nCell migration was observed using time-lapse microscopy (Movies S1-S3). […] Phase contrast cell images were automatically recorded under 10× objective (NA=0.30) using the SlideBook™ 4.1 Software (Intelligent Imaging Innovations, Denver, Colo.) for 10-15 hours at 10 or 20 minute intervals.\nBecause cell-cell contact is known to affect the extent of cell spreading and migration, cells were plated at low density (˜4×10^4 cells mL -1) to allow isolated movements. […] Area and spindle shape factor of individual cells was measured in each frame, and averaged over the entire duration of the experiment. […] Averages of cell populations were calculated from at least 60 cells. […]"}, "primary human GB cells [2]": {"test_system": "primary human GB cells", "experiment": "cell migration on multi-well nanopatterned platform (time-lapse microscopy)", "assay_type": "cell-based", "details": "for fraction of cells maintaining slower speeds (≦15 μm/hr): PDGF-exposed", "method": "Cells were cultured in the multi-well, nanopatterned device for approximately 48 hours in the course of each experiment. Prior to plating cells, nanoridged substrata were coated with poly-D-lysine (10 μg ml-1) for 15 minutes and mouse laminin (from 10 to 140 μg ml-1) for 1 hour. These topographically patterned cell substrata, caused cells to align with and move along the direction of the nanoridges. Both prior to, and during experiments cells were maintained at 37° C. and 5% CO2 in Dulbecco's Modified Eagle Medium: Nutrient Mixture F-12 containing 2 mM L-glutamine, with added 50 U mL-1 penicillin, […] streptomycin. Where indicated, media contained 10% fetal bovine serum (Invitrogen) or alternatively, Platelet-Derive Growth Factor-AA (PDGF-AA) (LC Laboratories) at specified concentrations.\nCell migration was observed using time-lapse microscopy (Movies S1-S3). To enable long-term observation, the multi-well, nanopatterned device was mounted onto the stage of a motorized inverted microscope (Olympus IX81) equipped with a Photometrics® Cascade® 512B II CCD camera and temperature and gas controlling environmental chamber. Phase contrast cell images were automatically recorded under 10× objective (NA=0.30) using the SlideBook™ 4.1 Software (Intelligent Imaging Innovations, Denver, Colo.) for 10-15 hours at 10 or 20 minute intervals.\nBecause cell-cell contact is known to affect the extent of cell spreading and migration, cells were plated at low density (˜4×10^4 cells mL -1) to allow isolated movements. A custom-made MATLAB® script was used allow manual tracking and measurement of cells frame by frame. Analysis was stopped in the event of cell death, division, collision with non-cellular debris, or movement out of the field of view. Area and spindle shape factor of individual cells was measured in each frame, and averaged over the entire duration of the experiment. The spindle shape factor was defined as the ratio of the maximum cell length (long axis) to the maximum cell width in the direction perpendicular to long axis, regardless of the orientation with respect to nanoridge pattern. Averages of cell populations were calculated from at least 60 cells.\nCells movements were tracked by centroid position or by the approximate center of the cell body. Individual cell trajectories were used to calculate the mean squared displacement (MSD) at each interval. Instantaneous speeds of individual cells were calculated from the MSD and the duration of the image acquisition time interval. Average speeds of individual cells were calculated from the total distanced moved throughout the entire cell trajectory and the total time the cell was tracked. Persistence was obtained as previously described, by calculating the ratio of the shortest distance between starting point and end point, divided by the total distanced moved. Alignment to the nanoridge pattern was calculated by dividing the distance moved parallel to the ridges, by the distance moved perpendicular to the ridges. Averages of cell populations were calculated from at least 60 cells."}, "PDGFRα": {"target": "PDGFRα (Homo sapiens, UniProt P16234)", "sequence (P16234 24-1089)": "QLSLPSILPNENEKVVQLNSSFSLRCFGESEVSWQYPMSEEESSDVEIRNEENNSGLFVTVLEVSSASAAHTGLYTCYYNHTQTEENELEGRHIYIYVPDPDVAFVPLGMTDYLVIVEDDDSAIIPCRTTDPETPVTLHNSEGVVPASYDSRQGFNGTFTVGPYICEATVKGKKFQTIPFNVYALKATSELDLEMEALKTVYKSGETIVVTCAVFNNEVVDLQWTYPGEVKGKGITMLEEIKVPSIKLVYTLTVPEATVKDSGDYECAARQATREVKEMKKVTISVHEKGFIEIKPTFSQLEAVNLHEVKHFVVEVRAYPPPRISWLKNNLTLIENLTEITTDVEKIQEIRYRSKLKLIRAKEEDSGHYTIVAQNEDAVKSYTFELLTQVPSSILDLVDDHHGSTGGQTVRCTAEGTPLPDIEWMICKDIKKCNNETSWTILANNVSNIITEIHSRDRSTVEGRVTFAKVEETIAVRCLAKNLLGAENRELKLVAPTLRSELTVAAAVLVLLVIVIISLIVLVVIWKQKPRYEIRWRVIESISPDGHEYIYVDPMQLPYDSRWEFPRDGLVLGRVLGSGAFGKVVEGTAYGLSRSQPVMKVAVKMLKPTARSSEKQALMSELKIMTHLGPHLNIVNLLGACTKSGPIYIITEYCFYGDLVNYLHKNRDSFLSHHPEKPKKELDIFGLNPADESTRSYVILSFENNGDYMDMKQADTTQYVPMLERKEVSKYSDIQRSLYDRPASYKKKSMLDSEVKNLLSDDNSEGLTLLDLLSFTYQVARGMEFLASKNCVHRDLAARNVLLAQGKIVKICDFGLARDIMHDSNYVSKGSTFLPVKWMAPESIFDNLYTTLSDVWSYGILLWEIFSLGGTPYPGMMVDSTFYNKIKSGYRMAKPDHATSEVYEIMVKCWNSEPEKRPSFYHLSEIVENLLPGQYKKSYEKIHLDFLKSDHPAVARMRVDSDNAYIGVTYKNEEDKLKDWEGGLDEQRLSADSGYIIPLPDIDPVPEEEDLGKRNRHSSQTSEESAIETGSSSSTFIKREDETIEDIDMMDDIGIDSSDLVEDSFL", "details": "cited from earlier work"}, "GB": {"test_system": "GB", "details": "cited from earlier work"}, "Akt": {"test_system": "Akt", "experiment": "Akt phosphorylation via immunoblotting", "assay_type": "cell-based, human", "details": "FIG. 10B", "procedure": "Total cellular protein was extracted using NE-PER Nuclear and Cytoplasmic Extraction Reagents kit according to the manufacturer's instructions (Thermo Scientific) containing protease (Roche) and phosphatase inhibitor (Thermo). Protein concentration was determined using the Bradford protein quantification method (Biorad Protein Assay, Biorad). SDS-PAGE was performed with 25 μg total cellular protein per lane using 4-12% gradient Tris glycine gels. The primary antibodies used were as follows: anti PDGFR-alpha (1:200; Santa Cruz); phospho-PDGFR alpha (1:1000; Cell Signaling); Akt (1:1000; Cell Signaling);\nphospho-Akt (1:1000; Cell Signaling)."}, "human GB cells": {"test_system": "human GB cells", "experiment": "mouse intracranial tumor xenograft of human GB cells with PDGF exposure", "assay_type": "in vivo", "method": "All animal protocols were approved by the Johns Hopkins School of Medicine Animal Care and Use Committee. For intracranial xenografts, SCID immnodeficient mice received 100,000 viable cells in 1 μl of DMEM/F12 serum media without growth factors by stereotactic injection into the right striatum. Cells were cultured in DMEM/F12 serum media with EGF/FGF and PDGF-AA ligand for three weeks before injections were performed. Cell viability was determined by trypan blue dye exclusion. Mice were perfused with 4% paraformaldehyde at the indicated times and the brains were removed for histological analysis."}}}
{"molecule": "laminin: surface-immobilized ECM protein used to coat substrata", "values": [{"measurement": "differences in migration at varying laminin densities", "setting": "primary human GB cells [1]; GB 318 cells", "result": "did not observe statistically significant differences"}, {"measurement": "response of speed, alignment and persistence to laminin coating concentration", "setting": "primary human GB cells [2]; GB 318 cells, nanopatterned substrata, optimum at intermediate laminin values", "result": "biphasic response"}]}
{"molecule": "Cc1ccc(NC(=O)c2ccc(CN3CCN(C)CC3)cc2)cc1Nc1nccc(-c2cccnc2)n1", "note": "[Imatinib]", "values": [{"measurement": "interaction with PDGFRα", "setting": "PDGFRα", "result": "known to interact with PDGFRα"}, {"measurement": "effect on PDGF-stimulated migration (speed and alignment)", "setting": "primary human GB cells [2]; 'responding' sample GB 276, PDGF-stimulated", "result": "attenuation of enhancements in speed and alignment"}, {"measurement": "GB growth", "setting": "GB", "result": "inhibit GB growth in vitro and in vivo"}]}
{"molecule": "PDGF", "values": [{"measurement": "migratory response to PDGF exposure", "setting": "primary human GB cells [1]", "result": "much more limited responses"}, {"measurement": "phosphorylation (activation) of downstream effector Akt", "setting": "Akt", "result": "PDGFdependent"}, {"measurement": "increase in migration speed upon PDGF stimulation vs unstimulated cells", "setting": "primary human GB cells [2]; 'responding' GB samples, PDGF 40-50 ng/mL", "result": "15-100%"}, {"measurement": "fraction of cells maintaining slower speeds (≦15 μm/hr)", "setting": "primary human GB cells [2]; GB 318 cells", "result": "roughly 70%"}, {"measurement": "fraction of cells maintaining slower speeds (≦15 μm/hr)", "setting": "primary human GB cells [2]; GB 630 cells", "result": "~60", "unit": "%"}, {"measurement": "sub-population of aggressive cells accounting for the increased average migration speed", "setting": "primary human GB cells [2]; in the presence of PDGF", "result": "approximately 20%"}, {"measurement": "maximal motility relative to control", "setting": "primary human GB cells [2]; nanopatterned system, intermediate PDGF concentrations, serum-free medium", "result": "up to 2 fold"}, {"measurement": "dose dependence of response in migration speed and persistence", "setting": "primary human GB cells [2]; nanopatterned system, seven PDGF concentrations", "result": "clear graded dose dependence"}, {"measurement": "survival of mice", "setting": "human GB cells; GB 276 neurospheres cultured with PDGF three weeks before intracranial injection, n=4", "result": "significantly reduced survival"}, {"measurement": "tumor size, invasiveness and shape", "setting": "human GB cells; continuous PDGF exposure of tumor xenografts via infusion pump, n=2", "result": "larger, more invasion tumors with more eccentric shapes"}]}
